Measurements taken from US6737383B1, “Herbicidal oxadiazolidines” (priority 1999, dated 2004).

Tests used:
bedstraw = assay: Test B pre/postemergence bedstraw; type: in vivo, Galium aparine
Outline: (§1)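 Test chemicals in a non-phytotoxic solvent mixture with surfactant were sprayed preemergence onto planted seeds and postemergence onto plants 2 to 18 cm tall (1- to 4-leaf stage). After twelve to sixteen days in a greenhouse, injury was visually rated against untreated controls from 0 (no effect) to 10 (complete control).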

blackgrass = assay: Test B pre/postemergence blackgrass; type: in vivo, Alopecurus myosuroides
Outline: as §1

surinam grass = assay: Test B pre/postemergence surinam grass; type: in vivo, Brachiaria decumbens
Outline: as §1

cocklebur = assay: Test B pre/postemergence cocklebur; type: in vivo, Xanthium strumarium
Outline: as §1

corn = assay: Test B pre/postemergence corn; type: in vivo, Zea mays
Outline: as §1

giant foxtail = assay: Test B pre/postemergence giant foxtail; type: in vivo, Setaria faberii
Outline: as §1

morningglory = assay: Test B pre/postemergence morningglory; type: in vivo, Ipomoea hederacea
Outline: as §1

pigweed = assay: Test B pre/postemergence pigweed; type: in vivo, Amaranthus retroflexus
Outline: as §1

rape = assay: Test B pre/postemergence rape; type: in vivo, Brassica napus
Outline: as §1

soybean = assay: Test B pre/postemergence soybean; type: in vivo, Glycine max
Outline: as §1

sugar beet = assay: Test B pre/postemergence sugar beet; type: in vivo, Beta vulgaris
Outline: as §1

velvetleaf = assay: Test B pre/postemergence velvetleaf; type: in vivo, Abutilon theophrasti
Outline: as §1

wheat = assay: Test B pre/postemergence wheat; type: in vivo, Triticum aestivum
Outline: as §1

wild oat = assay: Test B pre/postemergence wild oat; type: in vivo, Avena fatua
Outline: as §1

rice = assay: Test B flood test rice; type: in vivo, Oryza sativa
Outline: (§2)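 Each value is a visual injury score relative to controls, with 10 meaning complete control and 0 no effect. Evaluation took place twelve to sixteen days after the 2-leaf-stage plants were treated and kept in the greenhouse.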

smallflower flatsedge = assay: Test B flood test smallflower flatsedge; type: in vivo, Cyperus difformis
Outline: as §2

[1] = Preemergence, Rate 62 g/ha, scale of 0 to 10 where 0 is no effect and 10 is complete control
[2] = Preemergence, Rate 250 g/ha, scale of 0 to 10 where 0 is no effect and 10 is complete control
[3] = Preemergence, Rate 500 g/ha, scale of 0 to 10 where 0 is no effect and 10 is complete control
[4] = Rate 62 g/ha, Postemergence, scale 0 to 10 (0 no effect, 10 complete control)
[5] = Rate 125 g/ha, Postemergence, scale of 0 to 10 where 0 is no effect and 10 is complete control
[6] = Rate 250 g/ha, Postemergence, scale of 0 to 10 where 0 is no effect and 10 is complete control
[7] = Rate 500 g/ha, Postemergence, scale 0 to 10, 0 no effect, 10 complete control
[8] = Rate 62 g/ha, headed Pre-emergence (flood test species), scale 0 to 10 (0 no effect, 10 complete control)
[9] = Rate 125 g/ha, Pre-emergence, flood test species, scale 0 to 10 where 0 is no effect and 10 is complete control
[10] = Rate 250 g/ha, Pre-emergence, flood-test species, scale 0 to 10, 0 is no effect, 10 is complete control
[11] = Rate 500 g/ha, Pre-emergence, flood test species, scale 0 to 10 (0 no effect, 10 complete control)

In the case of CC(C)N(C(=O)n1oc(=O)n(C2CCCCO2)c1=O)c1ccc(F)cc1 (stereo not drawn) [Compound 311], the “Bedstraw plant response rating” value (bedstraw; [1]) was 0, the “Bedstraw plant response rating (0 to 10 scale)” value (bedstraw; Preemergence, Rate 125 g/ha) was 0 and the “Bedstraw plant response rating” value (bedstraw; [2]) was 0. The “Bedstraw plant response rating” value (bedstraw; [3]) was 0, the “Bedstraw plant response rating” value (bedstraw; [4]) was 0 and the “Bedstraw plant response rating” value (bedstraw; [5]) was 0. For the same compound, the “Plant response rating, Bedstraw” value (bedstraw; [6]) was 0, the “Bedstraw plant response rating” value (bedstraw; [7]) was 2 and the “Blackgrass plant response rating” value (blackgrass; [1]) was 0. The “Blackgrass plant response rating (0 to 10 scale)” value (blackgrass; Preemergence, Rate 125 g/ha) was 0, the “Blackgrass plant response rating” value (blackgrass; [2]) was 0 and the “Blackgrass plant response rating” value (blackgrass; [3]) was 0. For the same compound, the “Blackgrass plant response rating” value (blackgrass; [4]) was 0, the “Blackgrass plant response rating” value (blackgrass; [5]) was 0 and the “Plant response rating, Blackgrass” value (blackgrass; [6]) was 0. The “Blackgrass plant response rating” value (blackgrass; [7]) was 0, the “B. signalgrass plant response rating” value (surinam grass; [1]) was 0 and the “B. signalgrass plant response rating (0 to 10 scale, 0 is no effect, 10 is complete control)” value (surinam grass; Preemergence, Rate 125 g/ha) was 0. For the same compound, the “B. signalgrass plant response rating” value (surinam grass; [2]) was 0, the “B. signalgrass plant response rating” value (surinam grass; [3]) was 0 and the “B. signalgrass plant response rating” value (surinam grass; [4]) was 0. For the same compound, the “B. signalgrass plant response rating” value (surinam grass; [5]) was 0, the “Plant response rating, B. signalgrass” value (surinam grass; [6]) was 0 and the “B. signalgrass plant response rating” value (surinam grass; [7]) was 0. For the same compound, the “Cocklebur plant response rating” value (cocklebur; [1]) was 0, the “Cocklebur plant response rating (0 to 10 scale)” value (cocklebur; Preemergence, Rate 125 g/ha) was 0 and the “Cocklebur plant response rating” value (cocklebur; [2]) was 0. For the same compound, the “Cocklebur plant response rating” value (cocklebur; [3]) was 0, the “Cocklebur plant response rating” value (cocklebur; [4]) was 0 and the “Cocklebur plant response rating” value (cocklebur; [5]) was 0. The “Plant response rating, Cocklebur” value (cocklebur; [6]) was 0, the “Cocklebur plant response rating” value (cocklebur; [7]) was 0 and the “Corn plant response rating” value (corn; [1]) was 0. The “Corn plant response rating (0 to 10 scale)” value (corn; Preemergence, Rate 125 g/ha) was 0, the “Corn plant response rating” value (corn; [2]) was 0 and the “Corn plant response rating” value (corn; [3]) was 0. For the same compound, the “Corn plant response rating” value (corn; [4]) was 0, the “Corn plant response rating” value (corn; [5]) was 0 and the “Plant response rating, Corn” value (corn; [6]) was 0. The “Corn plant response rating” value (corn; [7]) was 0, the “Giant foxtail plant response rating” value (giant foxtail; [1]) was 0 and the “Giant foxtail plant response rating (0 to 10 scale)” value (giant foxtail; Preemergence, Rate 125 g/ha) was 0. For the same compound, the “Giant foxtail plant response rating” value (giant foxtail; [2]) was 0, the “Giant foxtail plant response rating” value (giant foxtail; [3]) was 0 and the “Giant foxtail plant response rating” value (giant foxtail; [4]) was 0. The “Giant foxtail plant response rating” value (giant foxtail; [5]) was 0, the “Plant response rating, Giant foxtail” value (giant foxtail; [6]) was 0 and the “Morningglory plant response rating” value (morningglory; [1]) was 0. For the same compound, the “Morningglory plant response rating (0 to 10 scale)” value (morningglory; Preemergence, Rate 125 g/ha) was 0, the “Morningglory plant response rating” value (morningglory; [2]) was 0 and the “Morningglory plant response rating” value (morningglory; [3]) was 0. The “Morningglory plant response rating” value (morningglory; [4]) was 0, the “Morningglory plant response rating” value (morningglory; [5]) was 4 and the “Plant response rating, Morningglory” value (morningglory; [6]) was 8. For the same compound, the “Redroot pigweed plant response rating” value (pigweed; [1]) was 0, the “Redroot pigweed plant response rating (0 to 10 scale)” value (pigweed; Preemergence, Rate 125 g/ha) was 0 and the “Redroot pigweed plant response rating” value (pigweed; [2]) was 0. The “Redroot pigweed plant response rating” value (pigweed; [3]) was 0, the “Redroot pigweed plant response rating” value (pigweed; [4]) was 0 and the “Redroot pigweed plant response rating” value (pigweed; [5]) was 0. The “Plant response rating, Redroot pigweed” value (pigweed; [6]) was 0, the “Rape plant response rating” value (rape; [1]) was 0 and the “Rape plant response rating (0 to 10 scale)” value (rape; Preemergence, Rate 125 g/ha) was 0. The “Rape plant response rating” value (rape; [2]) was 0, the “Rape plant response rating” value (rape; [3]) was 0 and the “Rape plant response rating” value (rape; [4]) was 0. The “Rape plant response rating” value (rape; [5]) was 0, the “Plant response rating, Rape” value (rape; [6]) was 0 and the “Soybean plant response rating” value (soybean; [1]) was 0. The “Soybean plant response rating (0 to 10 scale)” value (soybean; Preemergence, Rate 125 g/ha) was 0, the “Soybean plant response rating” value (soybean; [2]) was 0 and the “Soybean plant response rating” value (soybean; [3]) was 0. For the same compound, the “Soybean plant response rating” value (soybean; [4]) was 2, the “Soybean plant response rating” value (soybean; [5]) was 2 and the “Plant response rating, Soybean” value (soybean; [6]) was 3. The “Sugarbeets plant response rating” value (sugar beet; [1]) was 0, the “Sugarbeets plant response rating (0 to 10 scale)” value (sugar beet; Preemergence, Rate 125 g/ha) was 0 and the “Sugarbeets plant response rating” value (sugar beet; [2]) was 0. For the same compound, the “Sugarbeets plant response rating” value (sugar beet; [3]) was 0, the “Sugarbeets plant response rating” value (sugar beet; [4]) was 0 and the “Sugarbeets plant response rating” value (sugar beet; [5]) was 0. For the same compound, the “Plant response rating, Sugarbeets” value (sugar beet; [6]) was 0, the “Velvetleaf plant response rating” value (velvetleaf; [1]) was 0 and the “Velvetleaf plant response rating (0 to 10 scale)” value (velvetleaf; Preemergence, Rate 125 g/ha) was 0. The “Velvetleaf plant response rating” value (velvetleaf; [2]) was 0, the “Velvetleaf plant response rating” value (velvetleaf; [3]) was 0 and the “Velvetleaf plant response rating” value (velvetleaf; [4]) was 0. For the same compound, the “Velvetleaf plant response rating” value (velvetleaf; [5]) was 0, the “Plant response rating, Velvetleaf” value (velvetleaf; [6]) was 0 and the “Wheat plant response rating” value (wheat; [1]) was 0. For the same compound, the “Wheat plant response rating (0 to 10 scale)” value (wheat; Preemergence, Rate 125 g/ha) was 0, the “Wheat plant response rating” value (wheat; [2]) was 0 and the “Wheat plant response rating” value (wheat; [3]) was 0. For the same compound, the “Wheat plant response rating” value (wheat; [4]) was 0, the “Wheat plant response rating” value (wheat; [5]) was 0 and the “Plant response rating, Wheat” value (wheat; [6]) was 0. For the same compound, the “Wild oats plant response rating” value (wild oat; [1]) was 0, the “Wild oats plant response rating (0 to 10 scale)” value (wild oat; Preemergence, Rate 125 g/ha) was 0 and the “Wild oats plant response rating” value (wild oat; [2]) was 0. The “Wild oats plant response rating” value (wild oat; [3]) was 0, the “Wild oats plant response rating” value (wild oat; [4]) was 0 and the “Wild oats plant response rating” value (wild oat; [5]) was 0. The “Plant response rating, Wild oats” value (wild oat; [6]) was 0, the “Rice plant response rating” value (rice; [8]) was 0 and the “Rice plant response rating” value (rice; [9]) was 0. The “Rice plant response rating” value (rice; [10]) was 0, the “Rice plant response rating” value (rice; [11]) was 0 and the “S. Flatsedge plant response rating” value (smallflower flatsedge; [8]) was 0. The “S. Flatsedge plant response rating” value (smallflower flatsedge; [9]) was 0, the “S. Flatsedge plant response rating” value (smallflower flatsedge; [10]) was 0 and the “S. Flatsedge plant response rating” value (smallflower flatsedge; [11]) was 0.
